Data taken from patent US8207176B2 (Glaxo Group Limited, priority 2005, dated 2012).
Entries after “also recorded” stand apart in the source; their conditions may differ.

The compounds below were run on influx of neutrophils to the lung in LPS-challenged rats (assay: Rat LPS neutrophilia model). Settings: intratracheal, LPS aerosol 100 ug/ml 15 min, lavage 4 hours later, in at least one of the range of conditions tested, significant p<0.05, nonsignificant p>0.05.
Type: in vivo
Protocol: The effect of compounds on the influx of neutrophils to the lung in LPS-challenged rats is evaluated as follows. The test compound is suspended in one of the following solutions: 0.5% tween 80/PBS, 0.5% tween 80/saline, 10% EtOH/saline (with pH adjusted to 2.0, or 8.0 with HCl, or unadjusted), Saline @ pH 2.0, 6.5 or 8.0, 0.5% Tragacanth, 1% DMSO/20% Encapsin/Saline, or acidified 5% Tragacanth. The suspension process may be aided by the use of a glass homogenizer. For intratracheal administration, the animals are anesthetized with inhaled isoflurane and placed in a supine position, the trachea is intubated with a steel gavage needle (1.5 inch, 22 gauge, small ball) or a Penn-Century Microsprayer Aerosolizer (model IA-IB) and 200 ul of dosing solution is delivered. The animals are visually monitored during the recovery process, which typically occurs within two minutes. It is noted that the test compounds may be alternatively administered via the microsprayer in a dry powder blend with a suitable excipient, such as lactose.
Rats treated with compound or vehicle (15 min-24 hours pretreatment) are exposed to an LPS aerosol (100 ug/ml) for 15 min. Four hours later the rats are euthanized with pentobarbital (100 mg/kg, i.p.) and the airways are lavaged with 5 washes of 5 ml of phosphate buffered saline. The harvested cells are stained (Diffquick) and counted to determine total and differential cell data. […] Inhibition of neutrophil levels relative to no compound controls is calculated based on the differential counts.
The data is obtained as % inhibition using a particular concentration and pretreat time.
For `CCN(CC)CCCNc1nc(-c2cc(C(=O)NCCF)ccc2C)c2ccc(=O)n(-c3c(F)cccc3F)c2n1` [Example 133, 3-[2-{[3-(diethylamino)propyl]amino}-8-(2,6-difluorophenyl)-7-oxo-7,8-dihydropyrido[2,3-d]pyrimidin-4-yl]-N-(2-fluoroethyl)-4-methylbenzamidetrifluoroacetate], the “inhibition of neutrophilia (neutrophil levels in lung lavage relative to no compound controls)” value was “statistically significant inhibition”.
`CNCCNc1nc(-c2cc(C(=O)Nc3nccs3)ccc2C)c2ccc(=O)n(-c3c(F)cccc3F)c2n1` [Example 61, 3-(8-(2,6-difluorophenyl)-2-{[2-(methylamino)ethyl]amino}-7-oxo-7,8-dihydropyrido[2,3-d]pyrimidin-4-yl)-4-methyl-N-1,3-thiazol-2-ylbenzamide] was tested, and the “inhibition of neutrophilia (neutrophil levels in lung lavage relative to no compound controls)” value was “statistically significant inhibition”.
In the case of `CNCCNc1nc(-c2cc(C(=O)NCc3ccccc3)ccc2C)c2ccc(=O)n(-c3c(F)cccc3F)c2n1` [Example 59, 3-(8-(2,6-difluorophenyl)-2-{[2-(methylamino)ethyl]amino}-7-oxo-7,8-dihydropyrido[2,3-d]pyrimidin-4-yl)-4-methyl-N-(phenylmethyl)benzamide], the “inhibition of neutrophilia (neutrophil levels in lung lavage relative to no compound controls)” value is reported as “statistically significant inhibition”.
`CCN(CC)CCCNc1nc(-c2cc(C(=O)N(C)C)ccc2C)c2ccc(=O)n(-c3c(F)cccc3F)c2n1` [Example 120, 3-[2-{[3-(diethylamino)-propyl]amino}-8-(2,6-difluorophenyl)-7-oxo-7,8-dihydropyrido[2,3-d]-pyrimidin-4-yl]-N,N,4-trimethylbenzamide] was tested, and the “inhibition of neutrophilia (neutrophil levels in lung lavage relative to no compound controls)” value was “statistically nonsignificant inhibition; also recorded: inactive”.
For `Cc1ccc(C(=O)Nc2ccc(F)cc2)cc1-c1nc(N2CCC(N)CC2)nc2c1ccc(=O)n2-c1c(F)cccc1F` [Example 72], the “inhibition of neutrophilia (neutrophil levels in lung lavage relative to no compound controls)” value was “statistically significant inhibition”.
In the case of `Cc1ccc(C(=O)Nc2ccc(F)cc2)cc1-c1nc(N(C)CCCN(C)C)nc2c1ccc(=O)n2-c1c(F)cccc1F` [Example 115, 3-{8-(2,6-difluorophenyl)-2-[[3-(dimethylamino)propyl](methyl)amino]-7-oxo-7,8-dihydropyrido[2,3-d]pyrimidin-4-yl}-N-(4-fluorophenyl)-4-methylbenzamide], the “inhibition of neutrophilia (neutrophil levels in lung lavage relative to no compound controls)” value is reported as “statistically nonsignificant inhibition”.
`Cc1ccc(C(=O)NC2CCCC2)cc1-c1nc(N2CCC(N3CCC(C)CC3)CC2)nc2c1ccc(=O)n2-c1c(F)cccc1F` [Example 169, N-cyclopentyl-3-[8-(2,6-difluorophenyl)-2-(4-methyl-1,4′-bipiperidin-1′-yl)-7-oxo-7,8-dihydropyrido[2,3-d]pyrimidin-4-yl]-4-methylbenzamide] was tested, and the “inhibition of neutrophilia (neutrophil levels in lung lavage relative to no compound controls)” value was “statistically nonsignificant inhibition”.
`CCN(CC)CCCNc1nc(-c2cc(C(=O)N[C@@H](C)c3ccccc3)ccc2C)c2ccc(=O)n(-c3c(F)cccc3F)c2n1` [Example 149, 3-[2-{[3-(diethylamino)propyl]amino}-8-(2,6-difluorophenyl)-7-oxo-7,8-dihydropyrido[2,3-d]pyrimidin-4-yl]-4-methyl-N-[(1S)-1-phenylethyl]benzamide] was tested, and the “inhibition of neutrophilia (neutrophil levels in lung lavage relative to no compound controls)” value was “inactive”.
`Cc1ccc(C(=O)NCC2CC2)cc1-c1nc(N2CCC(N)CC2)nc2c1ccc(=O)n2-c1c(F)cccc1F` [Example 27, 3-[2-(4-amino-1-piperidinyl)-8-(2,6-difluorophenyl)-7-oxo-7,8-dihydropyrido[2,3-d]pyrimidin-4-yl]-N-(cyclopropylmethyl)-4-methylbenzamide] was tested, and the “inhibition of neutrophilia (neutrophil levels in lung lavage relative to no compound controls)” value was “statistically significant inhibition”.
